Reference: ChEMBL document CHEMBL6153094, “Rationally designed highly amphipathic antimicrobial peptides demonstrating superior bacterial selectivity relative to the corresponding α-helix peptide” (Eur J Med Chem, 2025)
Values after ≈ are worked out from the molar mass of the structure shown. Active and inactive are the calls of the source. No cut-off for these calls is given here.

Legend:
Acinetobacter baumannii = assay: Antimicrobial activity against Acinetobacter baumannii ATCC 19606 assessed as inhibition of visible bacterial growth incubated for 18 hrs by broth microdilution method; type: functional
Escherichia coli = assay: Antimicrobial activity against Escherichia coli ATCC 25922 assessed as inhibition of visible bacterial growth incubated for 18 hrs by broth microdilution method; type: functional
Klebsiella pneumoniae = assay: Antimicrobial activity against Klebsiella pneumoniae ATCC 700603 assessed as inhibition of visible bacterial growth incubated for 18 hrs by broth microdilution method; type: functional
Pseudomonas aeruginosa = assay: Antimicrobial activity against Pseudomonas aeruginosa ATCC 27853 assessed as inhibition of visible bacterial growth incubated for 18 hrs by broth microdilution method; type: functional
Bacillus subtilis = assay: Antimicrobial activity against Bacillus subtilis ATCC 23857 assessed as inhibition of visible bacterial growth incubated for 18 hrs by broth microdilution method; type: functional
[1] = system: Staphylococcus epidermidis; assay: Antimicrobial activity against Staphylococcus epidermidis ATCC 12228 assessed as inhibition of visible bacterial growth incubated for 18 hrs by broth-dilution method; type: functional
Staphylococcus aureus [2] = assay: Antimicrobial activity against Staphylococcus aureus ATCC 25923 assessed as inhibition of visible bacterial growth incubated for 18 hrs by broth-dilution method; type: functional
Enterococcus faecalis = assay: Antimicrobial activity against Enterococcus faecalis ATCC 29212 assessed as inhibition of visible bacterial growth incubated for 18 hrs by broth-dilution method; type: functional
[3] = Hemolytic activity in mouse red blood cells assessed as hemolysis incubated for 1 hrs by absorbance based assay; type: toxicity, cell-based; details: erythrocyte
Staphylococcus aureus [4] = assay: Antimicrobial activity against methicillin-drug resistant Staphylococcus aureus ATCC 33591 assessed as concentration required to eliminate 90% bacteria incubated for 18 hrs by broth-microdilution method; type: functional
Staphylococcus aureus [5] = assay: Antibacterial activity against methicillin-resistant Staphylococcus aureus ATCC 33591 infected in male Balb/c mouse model of full thickness skin wound assessed as reduction in bacterial load in skin at 1 mg/ml pre-infected with bacteria for 1 hrs followed by compound administration at 1,12 and 36 hrs post infection and measured 60 hrs post infection by agar plate method; type: functional, organism-based; details: time 59.0 hrs
Staphylococcus aureus [6] = assay: Antibacterial activity against methicillin-resistant Staphylococcus aureus ATCC 33591 infected in male Balb/c mouse model of full thickness skin wound assessed as reduction in bacteria in skin wound at 1 mg/ml pre-infected with bacteria for 1 hrs followed by compound administration at 1,12 and 36 hrs post infection and measured after 10 days by photographic analysis; type: functional, organism-based; details: time 10.0 day
Staphylococcus aureus [7] = assay: (§1) Antibacterial activity against methicillin-resistant Staphylococcus aureus ATCC 33591 infected in male Balb/c mouse model of full thickness skin wound assessed as reduction in number of inflammatory cells in skin at 1 mg/ml pre-infected with bacteria for 1 hrs followed by compound administration at 1,12 and 36 hrs post infection and measured after 10 days by H and E staining based analysis; type: functional, organism-based; details: time 10.0 day
Staphylococcus aureus [8] = assay: as §1, with “decrease” for “reduction”, “cell necrosis” for “number of inflammatory cells”; type: functional, organism-based; details: time 10.0 day

| Molecule | MIC (Acinetobacter baumannii) [µM] | MIC (Escherichia coli) [µM] | MIC (Klebsiella pneumoniae) [µM] | MIC (Pseudomonas aeruginosa) [µM] | MIC (Bacillus subtilis) [µM] | MIC [1] [µM] | MIC (Staphylococcus aureus [2]) [µM] | MIC (Enterococcus faecalis) [µM] | HC10 [3] [µM] | EC90 (Staphylococcus aureus [4]) [nM] | Activity (Staphylococcus aureus [5]) | Activity (Staphylococcus aureus [6]) | Activity (Staphylococcus aureus [7]) | Activity (Staphylococcus aureus [8]) | Activity [3] |
| --- | --- | --- | --- | --- | --- | --- | --- | --- | --- | --- | --- | --- | --- | --- | --- |
| CO[C@H]1/C=C/O[C@@]2(C)Oc3c(C)c(O)c4c(O)c(c(/C=N/N5CCN(C)CC5)c(O)c4c3C2=O)NC(=O)/C(C)=C\C=C\[C@H](C)[C@H](O)[C@@H](C)[C@@H](O)[C@@H](C)[C@H](OC(C)=O)[C@@H]1C [RIFAMPIN] | 1 (≈ 0.823 µg/mL) | 8 (≈ 6.58 µg/mL) | 32 (≈ 26.3 µg/mL) | 32 (≈ 26.3 µg/mL) | < 1 | < 1 | < 1 | < 1 | – | – | – | – | – | – | – |
| H-RRWFRRWKRWFK-NH2 | 16 | 8 | 4 | 2 | 1 | 2 | 4 | 32 | > 256 | – | – | – | – | – | – |
| H-RRWFRRWGRWFG-NH2 [listing 1 of 2 here] | 32 | 8 | 8 | 2 | 2 | 2 | 16 | 32 | – | – | – | – | – | – | – |
| CN[C@H](CC(C)C)C(=O)N[C@H]1C(=O)N[C@@H](CC(N)=O)C(=O)N[C@H]2C(=O)N[C@H]3C(=O)N[C@H](C(=O)N[C@H](C(=O)O)c4cc(O)cc(O)c4-c4cc3ccc4O)[C@H](O)c3ccc(c(Cl)c3)Oc3cc2cc(c3O[C@@H]2O[C@H](CO)[C@@H](O)[C@H](O)[C@H]2O[C@H]2C[C@](C)(N)[C@H](O)[C@H](C)O2)Oc2ccc(cc2Cl)[C@H]1O [VANCOMYCIN] | 32 (≈ 46.4 µg/mL) | 128 (≈ 186 µg/mL) | 128 (≈ 186 µg/mL) | > 128 | < 1 | < 1 | < 1 | 2 (≈ 2.9 µg/mL) | – | 289 | Active | Active; Obvious Facilitation Of Wound Healing Not Observed | Active | Active | – |
| H-RRWFRRWTRWFT-NH2 | 8 | 8 | 8 | 4 | 1 | 2 | 8 | 16 | > 256 | – | – | – | – | – | – |
| H-RRWFRRWLRWFL-NH2 | 32 | 16 | 32 | 16 | 2 | 2 | 16 | 32 | – | – | – | – | – | – | Toxic |
| H-RRWFRRWGRWFG-NH2 [listing 2 of 2 here] | – | – | – | – | – | – | – | – | > 256 | – | – | – | – | – | – |
| H-RRWFRRWWRWFW-NH2 | 32 | 32 | 64 | 32 | 4 | 4 | 32 | 32 | – | – | – | – | – | – | Toxic |
| H-RRWFRRWERWFE-NH2 | 32 | 16 | 16 | 16 | 4 | 8 | 32 | 128 | > 256 | – | – | – | – | – | – |
| H-RRWFRRWIRWFI-NH2 | 16 | 16 | 16 | 16 | 1 | 4 | 16 | 16 | 2.39 | – | – | – | – | – | – |
| H-RRWFRRWFRRWF-NH2 | 16 | 16 | 16 | 16 | 8 | 8 | 8 | 16 | 16.44 | – | – | – | – | – | – |
| H-RRWFRRWFRWFF-NH2 | 32 | 32 | 32 | 16 | 2 | 4 | 32 | 32 | – | – | – | – | – | – | Toxic |
